Patent publication US6737240B1, “Methods of screening for a multi-drug resistance conferring peptide” (Rigel Pharmaceuticals, Inc., priority 1999, dated 2004)

Assays:
Assay type in all cases: cell-based
Bcl-xL = assay: Endogenous anti-apoptotic protein level; conditions: cells expressing RGP8.5, presence or absence of Dox; data not shown
hsp70 = assay: Western blot of endogenous protein levels in RGP8.5 HeLa clone; conditions: irrespective of expression of the peptide
Description: FIG. 6 depicts that inhibition of proteasome activity by RGP8.5 arrests cell cycle progression. […] To examine the effect of RGP8.5 on the endogenous protein expression, RGP8.5 expressing HeLa cells were incubated with doxycycline (200 ng/ml) for 4 days before harvesting for western analysis. Equal amount of cell lysate were loaded on each lane, separated by SDS-PAGE and immunoblotted with antiserum against GFP (Kodak), hsp70 and cyclin B1 (Santa Cruz).
Transfection, immunoprecipitation and western blot. A calcium phosphate transfection method was used for all transfections of test constructs into 293T cells. Cells were lysed in […] of TNT buffer (20 mM Tris-HCl pH7.5, 200 mM NaCl and 1% Triton-X100), supplemented with 1 mM DTT and protease cocktail (Boehringer Mannheim). The cell extracts were incubated with […] anti-flag antibody conjugated beads (Babco) at 4° C. The beads were spun down and washed with […] TNT buffer for four times. For immunoprecipitation with biotinylated RG8.5 peptide, 3 10^6 Hela cells were lysed in a buffer containing 20 mM HEPES pH7.4, 150 mM NaCl and 1% NP40 and precleaned with a Streptavidin column (Pierce, Rockford, Ill.) to reduce non-specific binding. 3 ml of biotinylated RG8.5 peptide (1 mg/ml) in DMSO was added to the cell lysate and allowed to mix overnight at 4 ° C. […]

HeLa cells = assay: Growth rate of GFP positive versus GFP negative population; conditions: data not shown

## MGEFLIVKVVWGRMVCWV-LVVRRFVLVIVLENSLSSNQGPP [RGP8.5]
Bcl-xL
  Bcl-xL expression level: same expression level
hsp70
  endogenous hsp70 protein level: same level
HeLa cells
  impact on cell growth: negative impact
